Measured values published in US20260337153A1, “IONIZABLE AMINE LIPIDS” (Intellia Therapeutics, Inc., priority 2023, published 2026).

Assay: LNP average particle size and polydispersity by dynamic light scattering
Assay type: physicochemical
Settings: sgRNA:mRNA 1:2; for Number mean (average particle size) / PDI (polydispersity index) / Z-avg (average particle size): LNP with 50% ionizable lipid, 3% C13 Ether (LNP #1, Compound 53: 3% PEG2K-DMG instead)
Description: Dynamic Light Scattering (“DLS”) is used to characterize the polydispersity index (“pdi” or “PDI”) and size of the LNPs of the present disclosure. DLS measures the scattering of light that results from subjecting a sample to a light source. PDI, as determined from DLS measurements, represents the distribution of particle size (around the mean particle size) in a population, with a perfectly uniform population having a PDI of zero.
LNP compositions are analyzed for average particle size, polydispersity index (pdi), total RNA content, encapsulation efficiency of RNA, and zeta potential. LNP compositions may be further characterized by lipid analysis, AF4-MALS, NTA, and/or cryo-EM.
Average particle size and polydispersity are measured by dynamic light scattering (DLS) using a Malvern Zetasizer DLS instrument. LNP samples were diluted with PBS buffer prior to being measured by DLS. Z-average diameter (“Z-avg”) which is an intensity-based measurement of average particle size was reported along with number average diameter (“number mean”) and PDI. A Malvern Zetasizer instrument is also used to measure the zeta potential of the LNP. Samples are diluted 1:17 (50 μL into 800 μL) in 0.1×PBS, pH 7.4 prior to measurement.
In vivo editing efficiency for materials delivered with formulations including various amine lipid (or ionizable lipid) compounds in Experiments 1 through 14 as described in Tables 3 and 4 was assessed. Editing was measured using G000534 (SEQ ID NO: 5) which targets the rat TTR gene. Lipids described above were assessed for efficacy through in vivo editing experiments. LNPs were formulated at a 1:2 w/w ratio of sgRNA (SEQ ID NO: 5) and Cas9 mRNA (SEQ ID NO: 3). In Experiments 1 through 13, lipid components of the LNP are formulated in a molar ratio of 50% ionizable lipid, 38% cholesterol, 9% DSPC, and 3% PEG2K-DMG. In Experiment 14, lipid components of the LNP are formulated in a molar ratio of 50% ionizable lipid, 38% cholesterol, 9% DSPC, and 3% C13 Ether. The final LNPs used in different in vivo editing experiments were characterized to determine the encapsulation efficiency (% E), polydispersity index (PDI), and average particle size (Z-avg and number mean) according to the analytical methods provided above. The pKa values of each of the following ionizable lipids were also measured to be in the range of about 5.8 to about 7.6.
In vivo editing efficiency for materials delivered with formulations including various combinations of amine lipid (or ionizable lipid) and PEG lipid compounds was assessed as described in Tables 5 and 6. Editing was measured using G000534 (SEQ ID NO: 5) which targets the rat TTR gene. Lipids described above were assessed for efficacy through in vivo editing experiments. LNPs were formulated at a 1:2 w/w ratio of sgRNA (SEQ ID NO: 5) and Cas9 mRNA (SEQ ID NO:3). Lipid components of the LNP are formulated in a molar ratio of 50% ionizable lipid, 38% cholesterol, 9% DSPC, and 3% of various PEG lipids (e.g., PEG2K-DMG, C13 Ether, C14 Ether). The final LNPs used in different in vivo editing experiments were characterized to determine the encapsulation efficiency (% E), polydispersity index (PDI), and average particle size (Z-avg and number mean) according to the analytical methods provided above. The pKa values of each of the following ionizable lipids were also measured to be in the range of about 5.8 to about 7.6.
In vivo editing efficiency for materials delivered with formulations including various amine lipid (or ionizable lipid) compounds as described in Tables 7 and 8 was assessed. Editing was measured using G000534 (SEQ ID NO: 5) which targets the rat TTR gene. Lipids described above were assessed for efficacy through in vivo editing experiments. LNPs were formulated at a 1:2 w/w ratio of sgRNA (SEQ ID NO: 5) and Cas9 mRNA (SEQ ID NO: 3). Lipid components of the LNP were formulated in a molar ratio of 50% ionizable lipid, 38% cholesterol, 9% DSPC, and 3% C13 Ether. […]

[1] = Table 3, Experiments 1-13, LNP 50% ionizable lipid, 38% cholesterol, 9% DSPC, 3% PEG2K-DMG
[2] = Table 3, Experiment 14, LNP with 3% C13 Ether

Number mean [1] [nm]	PDI [1]	Z-avg [1] [nm]	Structure (SMILES)	also measured
81	0.03	90	CCCCCCCCC(CCCCCCCC)OC(=O)CCCCCC(=O)OCC(CCCCCCCCC(=O)OCC(CCCC)CCCCCC)COC(=O)NCCN(CC)CC (stereo not drawn) [Compound 51, 1-(11-((2-butyloctyl)oxy)-2-((((2-(diethylamino)ethyl)carbamoyl)oxy)methyl)-11-oxoundecyl) 7-(heptadecan-9-yl) heptanedioate]	–
79	0.03	87	CCCCCCCCC(CCCCCCCC)OC(=O)CCCCCCC(=O)OCC(COC(=O)CCCCCCC(=O)OC(CCCCCCCC)CCCCCCCC)COC(=O)NCCN(CC)CC [Compound 52, O′1,O1-(2-((((2-(diethylamino)ethyl)carbamoyl)oxy)methyl)propane-1,3-diyl) 8,8′-di(heptadecan-9-yl) di(octanedioate)]	Number mean (average particle size) (38% cholesterol, 9% DSPC): 74 nm; PDI (polydispersity index) (38% cholesterol, 9% DSPC): 0.02; Z-avg (average particle size) (38% cholesterol, 9% DSPC): 88 nm; Number mean (Table 7, LNP with 3% C13 Ether): 79 nm; PDI (Table 7, LNP with 3% C13 Ether): 0.01; Z-avg (Table 7, LNP with 3% C13 Ether): 85 nm
81	0.02	87	CCCCCCCCOC(CCC(=O)OCC(COC(=O)NCCN(CC)CC)COC(=O)C(CCCC)CCCCCC)OCCCCCCCC (stereo not drawn) [Compound 48, 3-((4,4-bis(octyloxy)butanoyl)oxy)-2-((((2-(diethylamino)ethyl)carbamoyl)oxy)methyl)propyl 2-butyloctanoate]	–
75	0.05	83	CCCCCCCCCCCC(=O)OCC(COC(=O)CCC(OCCCCCCCC)OCCCCCCCC)COC(=O)OCCCN(CC)CC (stereo not drawn) [Compound 41, 3-((4,4-bis(octyloxy)butanoyl)oxy)-2-((((3-(diethylamino)propoxy)carbonyl)oxy)methyl)propyl Dodecanoate]	–
87	0.01	91	CCCCC/C=C\C/C=C\CCCCCCCC(=O)OCC(COC(=O)CCCC(=O)OC(CCCCCCCC)CCCCCCCC)COC(=O)N(C)CCN(CC)CC (stereo not drawn) [Compound 49, 3-(((2-(diethylamino)ethyl)(methyl)carbamoyl)oxy)-2-((((9Z,12Z)-octadeca-9,12-dienoyl)oxy)methyl)propyl heptadecan-9-yl Glutarate]	–

Second part, the compound before the results:

Structure (SMILES)	Number mean [1] [nm]	PDI [1]	Z-avg [1] [nm]	also measured
CCCCC/C=C\C/C=C\CCCCCCCC(=O)OCC(CCCCC(=O)OC(CCCC)CCCC)COC(=O)NCCN(CC)CC (stereo not drawn) [Compound 12, 2-((((2-(diethylamino)ethyl)carbamoyl)oxy)methyl)-7-(nonan-5-yloxy)-7-oxoheptyl (9Z,12Z)-octadeca-9,12-dienoate]	101	0.03	108	–
CCCCCCCCC(CCCCCCCC)OC(=O)CCCCC(=O)OCC(COC(=O)CCCCC(=O)OC(CCCCCCCC)CCCCCCCC)COC(=O)NCCN(CC)CC [Compound 68, O,O′-(2-((((2-(diethylamino)ethyl)carbamoyl)oxy)methyl)propane-1,3-diyl) di(heptadecan-9-yl) diadipate]	–	–	–	Number mean (average particle size) (38% cholesterol, 9% DSPC): 63 nm; PDI (polydispersity index) (38% cholesterol, 9% DSPC): 0.01; Z-avg (average particle size) (38% cholesterol, 9% DSPC): 75 nm
CCCCCCCCC(CCCCCCCC)OC(=O)CCCC(=O)OCC(COC(=O)CCCC(=O)OC(CCCCCCCC)CCCCCCCC)COC(=O)NCCN1CCCC1 [Compound 29, di(heptadecan-9-yl) O,O′-(2-((((2-(pyrrolidin-1-yl)ethyl)carbamoyl)oxy)methyl)propane-1,3-diyl) diglutarate]	67	0.023	74	–
CCCCC/C=C\C/C=C\CCCCCCCC(=O)OCC(CCCCC(=O)OC(CCCC)CCCC)COC(=O)OCCCN(CC)CC (stereo not drawn) [Compound 14, 2-((((3-(diethylamino)propoxy)carbonyl)oxy)methyl)-7-(nonan-5-yloxy)-7-oxoheptyl (9Z,12Z)-octadeca-9,12-dienoate]	107	0.01	114	–
CCCCC/C=C\C/C=C\CCCCCCCC(=O)OCC(CCCCC(=O)OC(CCCCCCCC)CCCCCCCC)COC(=O)OCCCN(CC)CC (stereo not drawn) [Compound 15, 2-((((3-(diethylamino)propoxy)carbonyl)oxy)methyl)-7-(heptadecan-9-yloxy)-7-oxoheptyl (9Z,12Z)-octadeca-9,12-dienoate]	58	0.06	66	–
CCCCCCCCOC(CCC(=O)OCC(COC(=O)CCC(OCCCCCCCC)OCCCCCCCC)COC(=O)NCCN(CC)CC)OCCCCCCCC [Compound 22, 2-((((2-(diethylamino)ethyl)carbamoyl)oxy)methyl)propane-1,3-diyl bis(4,4-bis(octyloxy)butanoate)]	77	0	82	–
CCCCC/C=C\C/C=C\CCCCCCCC(=O)OCC(CCCCCCCCC(=O)OC(CCCCCC)CCCCCC)COC(=O)OCCCN(CC)CC (stereo not drawn) [Compound 19, 2-((((3-(diethylamino)propoxy)carbonyl)oxy)methyl)-11-oxo-11-(tridecan-7-yloxy)undecyl (9Z,12Z)-octadeca-9,12-dienoate]	66	0.02	71	–
CCCCCCCCC(CCCCCCCC)OC(=O)CCCC(=O)OCC(COC(=O)CCCC(=O)OC(CCCCCCCC)CCCCCCCC)COC(=O)OCCCN(C)CC [Compound 30, O,O′-(2-((((3-(ethyl(methyl)amino)propoxy)carbonyl)oxy)methyl)propane-1,3-diyl) di(heptadecan-9-yl) diglutarate]	64	0.02	71	–
CCCCCCCCC(CCCCCCCC)OC(=O)CCCC(=O)OCC(COC(=O)CCCC(=O)OC(CCCCCCCC)CCCCCCCC)COC(=O)NCCN1CCCCC1 [Compound 28, di(heptadecan-9-yl) O,O′-(2-((((2-(piperidin-1-yl)ethyl)carbamoyl)oxy)methyl)propane-1,3-diyl) diglutarate]	60	0.022	65	–
CCCCCCCCC(CCCCCCCC)C(=O)OCC(COC(=O)NCCN(CC)CC)COC(=O)C(CCCCCCCC)CCCCCCCC [Compound 40, 2-((((2-(diethylamino)ethyl)carbamoyl)oxy)methyl)propane-1,3-diyl bis(2-octyldecanoate)]	–	–	–	Number mean [2]: 48 nm; PDI [2]: 0.062; Z-avg [2]: 57 nm
CCCCC/C=C\C/C=C\CCCCCCCC(=O)OCC(CCCCCCCCC(=O)OC(CCCCCCCC)CCCCCCCC)COC(=O)OCCCN(C)CC (stereo not drawn) [Compound 11, 2-((((3-(ethyl(methyl)amino)propoxy)carbonyl)oxy)methyl)-11-(heptadecan-9-yloxy)-11-oxoundecyl (9Z,12Z)-octadeca-9,12-dienoate]	70	0.02	78	–
CCCCCCCCC(CCCCCCCC)OC(=O)CCCC(=O)OCC(COC(=O)CCCC(=O)OC(CCCCCCCC)CCCCCCCC)COC(=O)CCCN(C)C [Compound 34, O,O′-(2-(((4-(dimethylamino)butanoyl)oxy)methyl)propane-1,3-diyl) di(heptadecan-9-yl) diglutarate]	–	–	–	Number mean [2]: 61 nm; PDI [2]: 0.032; Z-avg [2]: 69 nm
